Read-outs that look alike come from different tables or passages of the source.
Columns and labels:
Format in all cases: in vivo
[1] = test system: house flies, Musca domestica; test: Insecticidal activity against house flies, topical application on the notum, 24 h mortality; conditions: for LD50: Musca domestica
Method: Representative compounds of the N-alkoxysulfenylcarbamate esters of the invention were tested for insecticidal activity against house flies, Musca domestica. Stock 1% concentrated solutions of each of the test compounds were made in acetone, and such solutions diluted with acetone to a concentration of 0.001-0.1%. House flies were treated topically on the notum by 1 μl of each of the diluted acetone solutions and percent mortality was counted 24 hours after application. Insects were held at constant temperature of 60° F.
(§1) The term "LD50 " represents the dose needed to kill 50% of the test animals. In interpreting the values in the table above, the lower the value for LD50 for house flies, the greater the insecticidal potency or toxicity of that particular compound. On the other hand, the higher the value of LD50 for mice, the lower the mammalian toxicity or the greater is the mammalian safety of such compound.

[2] = Mammalian toxicity, oral, Swiss white mice; conditions: mouse, in vivo, po
Method: (§2) Mammalian toxicity was determined against Swiss white mice. The test compound was applied orally using corn oil as the carrier. Results are given as LD50 in mg of compound per kg body weight.
as §1

[3] = test system: Swiss white mice; test: Mammalian toxicity, oral, Swiss white mice; conditions: mice / mammals; comparison with parent carbamate or purified compound
Method: as §2, §1

[4] = Table 2, polysulfide derivatives, oral in corn oil, read-out: Mice Toxicity LD50
[5] = Table 1, oral in corn oil, samples contained polysulfide derivative in the amounts indicated, read-out: Mice LD50

Row | Structure (SMILES) | LD50 ([1]; read-out: House flies LD50) [mg/kg] | LD50 [2, 5] [mg/kg] | also measured
1 | CCCCCCOSN(C)C(=O)Oc1cccc2c1OC(C)(C)C2 [CH2 (CH2)4 CH3, n = 1, 2,3-dihydro-2,2-dimethyl-7-benzofuranyl(hexyloxysulfenyl)(methyl)carbamate] | – | – | House flies LD50 ([1]; Table 2, polysulfide derivatives): 9.3 µg/g; LD50 [2, 4]: 37 mg/kg
2 | CCCCCCOSSN(C)C(=O)Oc1cccc2c1OC(C)(C)C2 [CH2 (CH2)4 CH3, n = 2, disulfide derivative of 2,3-dihydro-2,2-dimethyl-7-benzofuranyl(hexyloxysulfenyl)(methyl)carbamate] | 13 | – | LD50 [2, 4]: 72 mg/kg
3 | COSSN(C)C(=O)Oc1cccc2c1OC(C)(C)C2 [CH3, n = 2, disulfide derivative of 2,3-dihydro-2,2-dimethyl-7-benzofuranyl(methoxysulfenyl)(methyl)carbamate] | 20.5 | – | LD50 [2, 4]: 48 mg/kg
4 | CNC(=O)Oc1cccc2c1OC(C)(C)C2 [Carbofuran, 2,3-dihydro-2,2-dimethyl-7-benzofuranyl methylcarbamate, reference compound] | 11 | – | LD50 ([1]; read-out: LD50 value for house flies): ~11 mg/kg; LD50 [2, 4]: 11 to 19 mg/kg; LD50 ([2]; read-out: LD50 for mice): 11 mg/kg
5 | COSN(C)C(=O)Oc1cccc2c1OC(C)(C)C2 [Example 1, 2,3-dihydro-2,2-dimethyl-7-benzofuranyl(methoxysulfenyl)(methyl)carbamate] | 15.5 | 43 | LD50 [2, 4]: 43 mg/kg
6 | CCOSN(C)C(=O)Oc1cccc2c1OC(C)(C)C2 [Example 2, 2,3-dihydro-2,2-dimethyl-7-benzofuranyl(ethoxysulfenyl)(methyl)carbamate] | 15.8 | 46 | –
7 | CC(C)OSN(C)C(=O)Oc1cccc2c1OC(C)(C)C2 [Example 3, 2,3-dihydro-2,2-dimethyl-7-benzofuranyl(isopropoxysulfenyl)(methyl)carbamate] | 31 | 55 to 70 | –
8 | CCCCCCOSN(C)C(=O)Oc1cccc2c1OC(C)(C)C2 [Example 4, 2,3-dihydro-2,2-dimethyl-7-benzofuranyl(hexyloxysulfenyl)(methyl)carbamate] | 9.3 | 88 | –
9 | CN(SOC1CCCCC1)C(=O)Oc1cccc2c1OC(C)(C)C2 [Example 5, 2,3-dihydro-2,2-dimethyl-7-benzofuranyl(cyclohexyloxysulfenyl)(methyl)carbamate] | 21.5 | 69 | –
10 | CN(SOCc1ccccc1)C(=O)Oc1cccc2c1OC(C)(C)C2 [Example 6, 2,3-dihydro-2,2-dimethyl-7-benzofuranyl(benzyloxysulfenyl)(methyl)carbamate] | 7.5 | 59 | –
11 | CCCCCCCCCCCCOSN(C)C(=O)Oc1cccc2c1OC(C)(C)C2 [Example 7, 2,3-dihydro-2,2-dimethyl-7-benzofuranyl(dodecyloxysulfenyl)(methyl)carbamate] | 21 | 340 | –
12 | CCCCOSN(C)C(=O)Oc1ccccc1OC(C)C [Example 8, 2-isopropoxyphenyl(butoxysulfenyl)(methyl)] | 46 | > 1000 | –
13 | CC(C)Oc1ccccc1OC(=O)N(C)SOCc1ccccc1 [Example 9, 2-isopropoxyphenyl(benzyloxysulfenyl)(methyl)carbamate] | 30 | > 1000 | LD50 ([2]; read-out: LD50 for mice): > 1000 mg/kg; mammalian toxicity / safety (in words) [3]: much safer to mammals
14 | CCCCOSN(C)C(=O)Oc1cccc(C(C)C)c1 [Example 10, 3-isopropylphenyl(butoxysulfenyl)(methyl)carbamate] | 120 | 130 | –
15 | CC(C)c1cccc(OC(=O)N(C)SOCc2ccccc2)c1 [Example 11, 3-isopropylphenyl(benzyloxysulfenyl)(methyl)carbamate] | 175 | 210 | –
16 | CCC(CC)OSN(C)C(=O)Oc1cccc2c1OC(C)(C)C2 [Example 12, 2,3-Dihydro-2,2-dimethyl-7-benzofuranyl (1-ethylpropoxysulfeny)(methyl)carbamate] | 21 | 63 | –
17 | CN(SOC(C)(C)C)C(=O)Oc1cccc2c1OC(C)(C)C2 [Example 13, 2,3-Dihydro-2,2-dimethyl-7-benzofuranyl (tert-butoxysulfenyl)(methyl)carbamate] | 20 to 30 | 75 | –
18 | CCCCCCCCOSN(C)C(=O)Oc1cccc2c1OC(C)(C)C2 [Example 14, 2,3-Dihydro-2,2-dimethyl-7-benzofuranyl (methyl)-(octyloxysulfenyl)carbamate] | 13 | 100 | –
19 | CCCCCCCCCCOSN(C)C(=O)Oc1cccc2c1OC(C)(C)C2 [Example 15, 2,3-Dihydro-2,2-dimethyl-7-benzofuranyl (decyloxysulfenyl)(methyl)carbamate] | 7.3 | 135 | –
20 | COc1ccc(COSN(C)C(=O)Oc2cccc3c2OC(C)(C)C3)cc1 [Example 16, 2,3-Dihydro-2,2-dimethyl-7-benzofuranyl (P--methoxybenzyloxysulfenyl)(methyl)carbamate] | 13.8 | 108 | –
21 | CN(SOCc1ccc(C(C)(C)C)cc1)C(=O)Oc1cccc2c1OC(C)(C)C2 [Example 17, 2,3-Dihydro-2,2-dimethyl-7-benzofuranyl (P--tert-butylbenzyloxysulfenyl)(methyl)carbamate] | 15.5 | 98 | –
22 | CCCCCCCCCCCCCCCCCCOSN(C)C(=O)Oc1cccc2c1OC(C)(C)C2 [Example 18, 2,3-Dihydro-2,2-dimethyl-7-benzofuranyl (methyl)(octadecyloxysulfenyl)carbamate] | 75 | ≥ 1000 | –
23 | CNC(=O)Oc1ccccc1OC(C)C [propoxur, 2-isopropoxyphenyl methylcarbamate, reference compound] | – | – | LD50 ([2]; read-out: LD50 for mice): 62 mg/kg

Reference: patent US4394383A, “N-Alkoxysulfenylcarbamates useful as insecticides” (priority 1981, dated 1983)
